The text below walks through data of US3988364A, “Novel N,N-di-substituted amidines and several acid-addition salts thereof” (Toyo Jozo Kabushiki Kaisha, priority 1972, dated 1976).

One data set concerns male mice of ddy-strain. In words: in vivo. Type of data set: in vivo. To be noted: subcutaneous injection, 72 hours, Litchfield-Wilcoxon.
In another data set the test system is dogs. In words: Antitussive activity (50%-antitussive effective dose AtD50; efficiency ratio relative to codeine phosphate). In kind it is in vivo. To be noted: intravenous injection; for Antitussive Ratio: efficiency ratio relative to codeine phosphate; for ED50: Canis lupus familiaris, Litchfield-Wilcoxon method, read-out: AtD50 (50%-antitussive effective dose). As for the experimental part: route of administration:
From the efficiency rate obtained upon each administration step, 50%-antitussive effective dose (AtD50) was calculated according to the Litchfield-Wilcoxon method. Further, efficiency ratio relative to codeine phosphate was also determined.

A further data set deals with persons. The following applies: in words; inhibits long continuous administration; cited from earlier work.
A short description of the next data set: in vivo. Type of data set: in vivo. To be noted: mouse, in vivo, sc, male ddy mice, subcutaneous injection, Litchfield-Wilcoxon.

Where a name gives a salt, the structure may show the parent alone.

By LD50 is commonly meant the dose at which mortality reaches 50%. Read a low LD50 as greater toxicity.
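For LD50 in this document: animals allocated into more than five groups, with five mice per group.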

Description for male mice of ddy-strain: test animals: more than five groups, each group
consisting of five male mice of ddy-

`Cl.c1ccc(N(CCN2CCCCC2)Cc2ccccn2)cc1` [Compound 11, picoperidamine hydrochloride, reference compound] registered an LD50 in the data set with male mice of ddy-strain of 144 mg/kg. Besides, the “Antitussive Ratio” value in the data set with dogs is 0.95.
Taken in the same sequence, the figures for `Cl.Clc1ccc(C(OCCN2CCCCC2)c2ccccc2)cc1` (stereo not shown) [Compound 13, Hustazol, reference compound] were 375 mg/kg and 0.52.
`COc1ccc2c3c1O[C@H]1[C@@H](O)C=C[C@H]4[C@@H](C2)N(C)CC[C@@]341` [Compound 17, codeine phosphate, reference compound] returned an LD50 in the data set with male mice of ddy-strain of 190 mg/kg. Further, in the data set on dogs, the ED50 was determined as 2.2 mg/kg and the “Antitussive Ratio” value was 1.00. Besides, the habituation result with persons is “appreciable habituation”.
Take `Cc1cc(C)c(NC(=NC2CCCCC2)c2ccccc2)c(C)c1` [Compound 46, N-cyclohexyl, N'-2,4,6-trimethyl-phenyl-benzamidine hydrochloride]: the LD50 at 72 h in the data set “in vivo” came to 120 mg/kg. In the data set on dogs, the ED50 came to 5.15 mg/kg.
